Laboratory results: patent US8466089B2, “Pyrazole compounds, process for their production and herbicides containing them” (Ishihara Sangyo Kaisha, Ltd., priority 2008, dated 2013)
Where two headings read alike, the source gives them in different places.

Assays:
Assay type in all cases: in vivo
[1] = system: green foxtail (Setaria viridis L.); assay: Test Example 5, foliar treatment versus Reference Compounds; conditions: 5.0 to 5.5 leaf stage, 18th day after application, read-out: Growth inhibition rate (%) (18th day after application) Green foxtail
Text: (§1) Upland field soil was put into a 1/1,000,000 hectare pot, and seeds of various plants were sown. When the respective plants reached predetermined leaf stage ((1) velvetleaf (Abutilon theophrasti MEDIC.): 3.0 to 3.5 leaf stage, (2) giant foxtail (Setaria faberi Herrm.): 4.0 to 4.5 leaf stage, (3) green foxtail (Setaria viridis L.): 5.0 to 5.5 leaf stage, and (4) corn (Zea mays L.): 4.0 to 4.3 leaf stage, a wettable powder of compound No. 2-1 of the above-mentioned present invention, a wettable powder of the above-mentioned Reference Compound 1 and a wettable powder of the above-mentioned Reference Compound 2, prepared in accordance with a conventional preparation method, were weighed so that the active ingredients became the prescribed amounts, and diluted with water in an amount corresponding to 300 liter per 1 hectare (containing 0.5 vol % of an agricultural spreader (Destiny HC: WINFIELD SOLUTIONS by LLC). The spray solutions thus prepared were applied for foliar treatment by a small sprayer.
(§2) On the 7th to 20th day after application, the state of growth of the respective plants was visually observed, and the herbicidal effect was evaluated by a growth inhibition rate (%) of 0 (equivalent to the non-treated area) to 100% (complete kill).

[2] = system: giant foxtail (Setaria faberi Herrm.); assay: as above; conditions: 4.0 to 4.5 leaf stage, 20th day after application, read-out: Growth inhibition rate (%) (20th day after application) Giant foxtail
Text: as §1, §2

[3] = system: velvetleaf (Abutilon theophrasti MEDIC.); assay: as above; conditions: 3.0 to 3.5 leaf stage, 20th day after application, read-out: Growth inhibition rate (%) (20th day after application) Velvet leaf
Text: as §1, §2

corn (Zea mays L.) = assay: as above; conditions: 4.0 to 4.3 leaf stage, 7th day after application, read-out: Growth inhibition rate (%) (7th day after application) Corn
Text: as §1, §2

[4] = system: sorgo (Sorghum bicolor Moench) (var.: Lucky Sorgo); assay: Test Example 6, soil column downward movement, sorgo bioassay; conditions: 14th day after sowing
Experimental: Soil (sterilized soil:sand=3:1) was packed (4 L) into a column (9.5 cm in diameter×40 cm in height, application area: 0.007 m^2), and tap water was dropped from above by a Peristaltic pump before application of the herbicide for the purpose of maintaining the soil moisture to be uniform. Then, 10 mL of a spray solution prepared so that each agent (Compound No. 2-1, the above Reference Compounds 1 and 2) would be at a concentration corresponding to 250 g/ha was dropwise applied by a pipette. After application, water was dropped again at a rate of 400 mL/hr for about 3 hours by means of a Peristaltic pump. After the dropping, the column was left to stand for 1 day, and then the column was vertically evenly divided and seeds of sorgo (Sorghum bicolor Moench) (var.: Lucky Sorgo) were sown in a row. On the 14th day after sowing, the state of growth of the plant was visually observed at 3 cm intervals from the application point of the agent, whereby the germination and the degree of growth were evaluated by a growth inhibition rate (%) of 0 (equivalent to the non-treated area) to 100% (complete kill) to obtain the results in Table 17.
From the above results, the growth inhibition rates of Reference Compounds No. 1 and No. 2 are observed in depths deeper than that of Compound No. 2-1. […] Whereas, Compound No. 2-1 stayed at a shallow portion of soil (in a layer of from 0 to 9 cm).

`COCCOc1c(S(C)(=O)=O)ccc(C(=O)c2cnn(C(C)C)c2O)c1Cl` [Reference Compound 2] was tested, and the inhibition at 7 g/ha [1] was 35%, the inhibition at 3.5 g/ha [2] was 0% and the inhibition at 3.5 g/ha [3] was 50%. It also gave an inhibition at 90 g/ha (corn (Zea mays L.)) of 25%, an inhibition at 250 g/ha ([4]; depth 0-3 cm, read-out: Growth inhibition rate (%) against sorgo, Depth (cm) from the applied surface 0-3) of 48% and an inhibition at 250 g/ha ([4]; depth 3-6 cm, read-out: Growth inhibition rate (%) against sorgo, Depth (cm) from the applied surface 3-6) of 45%. The inhibition at 250 g/ha ([4]; depth 6-9 cm, read-out: Growth inhibition rate (%) against sorgo, Depth (cm) from the applied surface 6-9) was 47%, the inhibition at 250 g/ha ([4]; depth 9-12 cm, read-out: Growth inhibition rate (%) against sorgo, Depth (cm) from the applied surface 9-12) was 43% and the inhibition at 250 g/ha ([4]; depth 12-15 cm, read-out: Growth inhibition rate (%) against sorgo, Depth (cm) from the applied surface 12-15) was 58%. For the same molecule, the inhibition at 250 g/ha ([4]; depth 15-18 cm, read-out: Growth inhibition rate (%) against sorgo, Depth (cm) from the applied surface 15-18) was 55%, the inhibition at 250 g/ha ([4]; depth 18-21 cm, read-out: Growth inhibition rate (%) against sorgo, Depth (cm) from the applied surface 18-21) was 61% and the inhibition at 250 g/ha ([4]; depth 21-24 cm, read-out: Growth inhibition rate (%) against sorgo, Depth (cm) from the applied surface 21-24) was 63%. The inhibition at 250 g/ha ([4]; depth 24-27 cm, read-out: Growth inhibition rate (%) against sorgo, Depth (cm) from the applied surface 24-27) was 35% and the inhibition at 250 g/ha ([4]; depth 27-30 cm, read-out: Growth inhibition rate (%) against sorgo, Depth (cm) from the applied surface 27-30) was 8%.
